Assay results reported in patent US8778926B2, “Compounds, pharmaceutical compositions and uses thereof” (Boehringer Ingelheim International GmbH, priority 2011, dated 2014).

Biological target: T1, human GPR119 (Homo sapiens, UniProt Q8TDV5)
T1 construct: expression vector for human GPR119 cDNA (Acc. No. NP_848566); expressed in transfected cells
T1 sequence (Q8TDV5 1-335): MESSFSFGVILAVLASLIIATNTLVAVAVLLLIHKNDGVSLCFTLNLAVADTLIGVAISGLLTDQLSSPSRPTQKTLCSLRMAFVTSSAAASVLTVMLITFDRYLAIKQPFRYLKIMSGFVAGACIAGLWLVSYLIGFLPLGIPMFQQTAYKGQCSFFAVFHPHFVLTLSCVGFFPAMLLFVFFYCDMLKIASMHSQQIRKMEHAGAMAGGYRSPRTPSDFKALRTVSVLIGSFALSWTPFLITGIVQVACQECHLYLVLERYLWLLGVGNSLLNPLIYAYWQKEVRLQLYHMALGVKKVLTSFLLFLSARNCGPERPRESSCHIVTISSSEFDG
Test: AlphaScreen cAMP assay, activation of GPR119 in Min-6/hGPR119 cells
Format: cell-based
Conditions: MIN6 cells stably transfected with human GPR119; intracellular cAMP; 45 minutes incubation at room temperature
Description: The compounds of formula I according to the invention modulate the activity of the G-protein-coupled receptor GPR119. The effect of the compounds on the activation of GPR119 and on the stimulation of intracellular cAMP concentration is determined using the AlphaScreen cAMP Assay Kit (Cat. No. #6760625R) made by PerkinElmer.
MIN6 cells [Miyazaki J et al. Endocrinology. 1990 July; 127(1):126-32] are stably transfected with an expression vector for human GPR119 cDNA (Acc. No. NP_848566). Min-6/hGPR119 cells are cultured in DMEM, 10% FBS, 500 μM β-mercaptoethanol, 0.3 mg/mL Geniticin, 2 mM GlutaMAX at 37° C. 5% CO2. For the assay, the cells are seeded in Optiplates (white, 384-well, 160 W— barcoded, TC, sterile with lid, Cat. No. #6007688 (Perkin Elmer); 10000 cells/well; 50 μl). The plates covered with lids are then incubated for 24 hours at 37° C./5% CO2. After the medium is aspirated from the wells completely, 10 μl of the test compound are added, the compounds are diluted using stimulating buffer (140 mM NaCl, 3.6 mM KCl, 0.5 mM NaH2PO4, 0.5 mM MgSO4, 1.5 mM CaCl2, 10 mM Hepes, 5 mM NaHCO3; pH 7.4. 0.5 mM IBMX and 0.1% BSA, the final DMSO concentration is 1%). After 45 minutes incubation at room temperature (approx. 20° C.), the cAMP concentrations are determined using the AlphaScreen cAMP Assay Kit (Cat. No. #6760625R from PerkinElmer).

SMILES	EC50 [nM]
CCc1cnc(N2CCC(C3Cc4cc(-c5ccc(S(C)(=O)=O)cc5)ccc4O3)CC2)nc1 (stereo not drawn) [Example 1, 5-Ethyl-2-{4-[5-(4-methanesulfonyl-phenyl)-2,3-dihydro-benzofuran-2-yl]-piperidin-1-yl}-pyrimidine]	21
CC(C)c1noc(N2CCC(C3Cc4cc(-c5ccc(S(C)(=O)=O)cc5)ccc4O3)CC2)n1 (stereo not drawn) [Example 2, 1-(3-Isopropyl-[1,2,4]oxadiazol-5-yl)-4-[5-(4-methanesulfonyl-phenyl)-2,3-dihydro-benzofuran-2-yl]-piperidine]	27
CS(=O)(=O)c1ccc(-c2ccc3c(c2)CC(C2CCN(c4nc(C5CC5)no4)CC2)O3)cc1 (stereo not drawn) [Example 3, 1-(3-Cyclopropyl-[1,2,4]oxadiazol-5-yl)-4-[5-(4-methanesulfonyl-phenyl)-2,3-dihydro-benzofuran-2-yl]-piperidine]	71
CCCc1noc(N2CCC(C3Cc4cc(-c5ccc(S(C)(=O)=O)cc5)ccc4O3)CC2)n1 (stereo not drawn) [Example 4, 4-[5-(4-Methanesulfonyl-phenyl)-2,3-dihydro-benzofuran-2-yl]-1-(3-propyl-[1,2,4]oxadiazol-5-yl)-piperidine]	52
CCc1cnc(N2CCC(C3Cc4cc(-c5ccc(S(C)(=O)=O)cc5)ncc4O3)CC2)nc1 (stereo not drawn) [Example 5, 2-[1-(5-Ethyl-pyrimidin-2-yl)-piperidin-4-yl]-5-(4-methanesulfonyl-phenyl)-2,3-dihydro-furo[2,3-c]pyridine]	12
CC(C)c1noc(N2CCC(C3Cc4cc(-c5ccc(S(C)(=O)=O)cc5)ncc4O3)CC2)n1 (stereo not drawn) [Example 6, 2-[1-(3-Isopropyl-[1,2,4]oxadiazol-5-yl)-piperidin-4-yl]-5-(4-methanesulfonyl-phenyl)-2,3-dihydro-furo[2,3-c]pyridine]	32
CCCc1noc(N2CCC(C3Cc4cc(-c5ccc(S(C)(=O)=O)cc5)ncc4O3)CC2)n1 (stereo not drawn) [Example 7, 5-(4-Methanesulfonyl-phenyl)-2-[1-(3-propyl-[1,2,4]oxadiazol-5-yl)-piperidin-4-yl]-2,3-dihydro-furo[2,3-c]pyridine]	35
CC(C)c1nc(N2CCC(C3Cc4cc(-c5ccc(S(C)(=O)=O)cc5)ncc4O3)CC2)no1 (stereo not drawn) [Example 8, 2-[1-(5-Isopropyl-[1,2,4]oxadiazol-3-yl)-piperidin-4-yl]-5-(4-methanesulfonyl-phenyl)-2,3-dihydro-furo[2,3-c]pyridine]	11
CCCc1nc(N2CCC(C3Cc4cc(-c5ccc(S(C)(=O)=O)cc5)ncc4O3)CC2)no1 (stereo not drawn) [Example 9, 5-(4-Methanesulfonyl-phenyl)-2-[1-(5-propyl-[1,2,4]oxadiazol-3-yl)-piperidin-4-yl]-2,3-dihydro-furo[2,3-c]pyridine]	12
Cc1cnc(N2CCC(C3Cc4cc(-c5ccc(S(C)(=O)=O)cc5)ncc4O3)CC2)cn1 (stereo not drawn) [Example 10, 5-(4-Methanesulfonyl-phenyl)-2-[1-(5-methyl-pyrazin-2-yl)-piperidin-4-yl]-2,3-dihydro-furo[2,3c]pyridine]	152
CCc1cnc(N2CCC(C3Cc4cc(-c5ccc(S(C)(=O)=O)cc5)ncc4O3)CC2)cn1 (stereo not drawn) [Example 11, 2-[1-(5-Ethyl-pyrazin-2-yl)-piperidin-4-yl]-5-(4-methanesulfonyl-phenyl)-2,3-dihydro-furo[2,3-c]pyridine]	59
CCc1cnc(N2CCC(C3Cc4cc(-c5ccc(CS(C)(=O)=O)cc5)ncc4O3)CC2)nc1 (stereo not drawn) [Example 12, 2-[1-(5-Ethyl-pyrimidin-2-yl)-piperidin-4-yl]-5-(4-methanesulfonylmethyl-phenyl)-2,3-dihydro-furo[2,3-c]pyridine]	22
CC(C)c1noc(N2CCC(C3Cc4cc(-c5ccc(CS(C)(=O)=O)cc5)ncc4O3)CC2)n1 (stereo not drawn) [Example 13, 2-[1-(3-Isopropyl-[1,2,4]oxadiazol-5-yl)-piperidin-4-yl]-5-(4-methanesulfonylmethyl-phenyl)-2,3-dihydro-furo[2,3-c]pyridine]	28

The remaining lines, values ahead:

EC50 [nM]	SMILES
29	CS(=O)(=O)c1ccc(-c2cc3c(cn2)OC(C2CCN(c4nc(C(F)(F)F)no4)CC2)C3)cc1 (stereo not drawn) [Example 14, 5-(4-Methanesulfonyl-phenyl)-2-[1-(3-trifluoromethyl-[1,2,4]oxadiazol-5-yl)-piperidin-4-yl]-2,3-dihydro-furo[2,3-c]pyridine]
38	CCCc1noc(N2CCC(C3Cc4cc(-c5ccc(CS(C)(=O)=O)cc5)ncc4O3)CC2)n1 (stereo not drawn) [Example 15, 5-(4-Methanesulfonylmethyl-phenyl)-2-[1-(3-propyl-[1,2,4]oxadiazol-5-yl)-piperidin-4-yl]-2,3-dihydro-furo[2,3-c]pyridine]
17	CC(C)c1nc(N2CCC(C3Cc4cc(-c5ccc(CS(C)(=O)=O)cc5)ncc4O3)CC2)no1 (stereo not drawn) [Example 16]
21	CCCc1nc(N2CCC(C3Cc4cc(-c5ccc(CS(C)(=O)=O)cc5)ncc4O3)CC2)no1 (stereo not drawn) [Example 17, 5-(4-Methanesulfonylmethyl-phenyl)-2-[1-(5-propyl-[1,2,4]oxadiazol-3-yl)-piperidin-4-yl]-2,3-dihydro-furo[2,3-c]pyridine]
2	CCc1cnc(N2CCC(C3Cc4cc(C5=CCN(S(C)(=O)=O)CC5)ncc4O3)CC2)nc1 (stereo not drawn) [Example 18, 2-[1-(5-Ethyl-pyrimidin-2-yl)-piperidin-4-yl]-5-(1-methanesulfonyl-1,2,3,6-tetrahydro-Pyridin-4-yl)-2,3-dihydro-furo[2,3-c]pyridine]
25	CCCc1noc(N2CCC(C3Cc4cc(C5=CCN(S(C)(=O)=O)CC5)ncc4O3)CC2)n1 (stereo not drawn) [Example 19, 5-(1-Methanesulfonyl-1,2,3,6-tetrahydro-pyridin-4-yl)-2-[1-(3-propyl-[1,2,4]oxadiazol-5-yl)-piperidin-4-yl]-2,3-dihydro-furo[2,3-c]pyridine]
16	CC(C)c1noc(N2CCC(C3Cc4cc(C5=CCN(S(C)(=O)=O)CC5)ncc4O3)CC2)n1 (stereo not drawn) [Example 20, 2-[1-(3-Isopropyl-[1,2,4]oxadiazol-5-yl)-piperidin-4-yl]-5-(1-methanesulfonyl-1,2,3,6-tetrahydro-pyridin-4-yl)-2,3-dihydro-furo[2,3-c]pyridine]
28	CC(C)c1noc(N2CCC(C3Cc4cc(-c5ccc(CS(C)(=O)=O)cc5F)ncc4O3)CC2)n1 (stereo not drawn) [Example 21, 5-(2-Fluoro-4-methanesulfonylmethyl-phenyl)-2-[1-(3-isopropyl-[1,2,4]oxadiazol-5-yl)-piperidin-4-yl]-2,3-dihydro-furo[2,3-c]pyridine]
6	CC(C)c1nc(N2CCC(C3Cc4cc(C5=CCN(S(C)(=O)=O)CC5)ncc4O3)CC2)no1 (stereo not drawn) [Example 22]
7	CCCc1nc(N2CCC(C3Cc4cc(C5=CCN(S(C)(=O)=O)CC5)ncc4O3)CC2)no1 (stereo not drawn) [Example 23, 5-(1-Methanesulfonyl-1,2,3,6-tetrahydro-pyridin-4-yl)-2-[1-(5-propyl-[1,2,4]oxadiazol-3-yl)-piperidin-4-yl]-2,3-dihydro-furo[2,3-c]pyridine]
60	CC(C)c1nc(N2CCC(C3Cc4cc(-c5ccc(CS(C)(=O)=O)cc5F)ncc4O3)CC2)no1 (stereo not drawn) [Example 24, 5-(2-Fluoro-4-methanesulfonylmethyl-phenyl)-2-[1-(5-isopropyl-[1,2,4]oxadiazol-3-yl)-piperidin-4-yl]-2,3-dihydro-furo[2,3-c]pyridine]
62	CCCc1nc(N2CCC(C3Cc4cc(-c5ccc(CS(C)(=O)=O)cc5F)ncc4O3)CC2)no1 (stereo not drawn) [Example 25, 5-(2-Fluoro-4-methanesulfonylmethyl-phenyl)-2-[1-(5-propyl-[1,2,4]oxadiazol-3-yl)-piperidin-4-yl]-2,3-dihydro-furo[2,3-c]pyridine]
18	CC(C)(C)c1noc(N2CCC(C3Cc4cc(C5=CCN(S(C)(=O)=O)CC5)ncc4O3)CC2)n1 (stereo not drawn) [Example 34, 2-[1-(3-tert-Butyl-[1,2,4]oxadiazol-5-yl)-piperidin-4-yl]-5-(1-methanesulfonyl-1,2,3,6-tetrahydro-pyridin-4-yl)-2,3-dihydro-furo[2,3-c]pyridine]
8	CC(C)(C)c1nc(N2CCC(C3Cc4cc(C5=CCN(S(C)(=O)=O)CC5)ncc4O3)CC2)no1 (stereo not drawn) [Example 39]
11	CCc1cnc(N2CCC(C3Cc4cc(-c5ccc(C(=O)N6CCOCC6)cc5)ccc4O3)CC2)nc1 (stereo not drawn) [Example 60]
47	CCc1cnc(N2CCC(C3Cc4cc(-c5ccc(C(=O)N(C)C6CCCOC6)cc5)ccc4O3)CC2)nc1 (stereo not drawn) [Example 61]
20	CCc1cnc(N2CCC(C3Cc4cc(-c5ccc(C(=O)N(C)CCOC)cc5)ccc4O3)CC2)nc1 (stereo not drawn) [Example 62]
